Results on two compounds are retold here after US5789395A, “Method of using tetracycline compounds for inhibition of endogenous nitric oxide production” (The Research Foundation of State University of New York, priority 1996, dated 1998).

In assay [1] the test system is iNOS in RAW 264.7 murine macrophage cells. Nature of the assay: nitrite accumulation in LPS-stimulated RAW 264.7 cells. Particulars: for IC50: Mus musculus. In kind it is cell-based. The method, then:
RAW 264.7 murine macrophage cells (American Type Culture Collection, Rockville, Md.) were incubated with and without doxycycline or minocycline (5-80 μg/mL) for 1-2 h followed by activation through addition of 100 ng/mL of LPS (Sigma Chemical Co., St. Louis, Mo.) to induce iNOS (Stuehr et al. 1991). After 14-20 h of incubation, the medium was used to estimate nitrite accumulation by the modified Griess reaction (Gilliam et al. 1993). The values are represented as μM of nitrite accumulated at a given time interval; n=3. The statistics were derived using unpaired Student's t test. The data represent one of three similar experiments.

Assay [2] has as its system iNOS. Nature of the assay: iNOS activity (L-arginine-to-L-citrulline) in cell-free extracts of cells treated with modulator before LPS. In kind it is cell-based, murine. The protocol:
Murine macrophage cells (RAW 264.7) were incubated with 20-80 μg/mL doxycycline or minocycline, 10 μM hydrocortisone (Sigma Chemical Co., St. Louis, Mo.), or 75 μM L-NMMA for 1-2 h, followed by addition of LPS at 100 ng/mL and incubation for 16-18 h. Cell-free extracts were prepared at the end of each time period. Specific activity of iNOS was determined in the cell-free extracts by monitoring the conversion of L-[^3 H]-arginine to L-[^3 H]-citrulline as described by Amin et al. (1995b) and Vyas et al. (1996).
Cell-free extracts were prepared as follows: Following induction by incubation with LPS, the cells were pelleted at 4° C. and resuspended in Tris buffer (10 mM, pH 7.4) containing 10 μg/mL each chymostatin, antipain, leupeptin and pepstatin, 1 mM DTT and 1 mM PMSF. Cells were lysed in a Polytron PT 1200 homogenizer (Kinematica AG, Switzerland) after 3 cycles of rapid freeze-thawing. The lysate was centrifuged at 16,000 rpm for 60 min at 4° C., and the supernatants were used as cell-free extracts.
The protein in the extracts was measured by BCA assay reagent using BSA as standard (Smith et al. 1985). The reaction mixture for iNOS assay consists of Tris 50 mM (pH 7.8); BSA 1 mg/mL; DTT 1 mM; CaCl2, 2 mM; FAD 10 μM; BH4 10,μM; L-arginine 30 μM; NADPH 1 mM. The reaction mixture was spiked with 1μL (250 nM) of L-[^3 H]-arginine (Dupont NEN, Boston, Mass.) (1 mCi/mL=37.0 MBq/mL). After 20 min the assays were terminated by heating the reaction mixture at 90° C. for 5 min. Ten microiters (≈100,000 cpm) of the supernatant was spotted on activated AVICEL TLC plates (Analtech, Newark, Del.). The TLC plates were developed in a solvent system consisting of ethanol:water:ammonia (80:16:4). Quantitation of the spot for L-[^3 H]-citrulline was performed by a Bioscan System 200 Imaging Scanner.

Assay [3] deals with T1, iNOS (Mus musculus, UniProt P29477).
T1 construct: prepared cell-free extracts as a source of iNOS enzyme; (cells); host or cells: RAW 264.7 murine macrophages, LPS-stimulated
Nature of the assay: direct effect on specific activity of iNOS in cell-free extracts (L-arginine-to-L-citrulline conversion). In kind it is biochemical, murine. Particulars: for effect on the specific activity of iNOS in cell-free extracts: 20-80 μg/mL, 15 min preincubation; for effect on an ongoing L-arginine-to-L-citrulline reaction catalyzed by iNOS: cell-free extracts. The method, then: To evaluate the direct effect of doxycycline and minocycline on iNOS activity, we induced RAW 264.7 cells with LPS for 16 h in the absence of these agents and prepared cell-free extracts as a source of iNOS enzyme in the L-arginine-to-L-citrulline conversion assay.
Separate aliquots of the enzyme-containing cell-free extracts were preincubated for 15 min with 20-80 μg/ mL doxycycline, 20-80 μg/mL minocycline, 1 mM N-acetylimidazole and 200 μM L-NMMA, respectively, before the enzyme reaction was initiated by adding the co-factors. Various modulators including methanol (MeOH), the carrier for NAI (N-acetylimidazole), were added 15 min prior to the addition of the co-factors to initiate the iNOS reaction, as described. The specific activity was calculated and percent inhibition was compare to the original LPS-stimulated extract; 100% specific activity was 200 pmol citrulline/min/mg protein. The data shown in FIG. 4 represent one of two similar experiments.

For assay [4], the system named is 133 kD iNOS. Nature of the assay: iNOS protein expression in LPS-activated RAW 264.7 cells (Western blot). It counts as cell-based, murine. The method, then: RAW 264.7 cells were activated with 100 ng/mL LPS for 16-18 h, with and without doxycycline or minocycline (20-80 μg/mL) or with hydrocortisone (10 μM). Cell-free extracts were prepared as described above. The extract s were analyzed for 133 kD iNOS by Western blotting, using specific anti-iNOS antibodies.
Equal amounts of protein (25-50 μg) estimated by BCA reagent (Pierce, Rockford, Ill.) were loaded onto SDS-PAGE gels and stained to verify the concentrations of various protein fractions by examining the intensities of the protein bands on the gels. Western blot analysis was carried out from the same cell extracts. The Western-blotted membrane was probed with a specific anti-murine iNOS monoclonal antibody (Transduction Laboratories, Lexington, Ky.), as specified by the supplier. The same blot was also probed with an anti-actin antibody generously provided by Dr. James L. Lessard (Children's Hospital Medical Center, Cincinnati, Ohio). The blots were developed using the ECL Western blot system (Amersham, Arlington Heights, Ill.). Quantitation of the bands was performed using a densitometer from Molecular Dynamics (Sunnyvale, Calif.). FIG. 5 is representative.

In assay [5] the test system is iNOS mRNA. Nature of the assay: iNOS mRNA expression in LPS-stimulated RAW cells (Northern blot). In kind it is cell-based, murine. To be noted: Mus musculus, normalized against β-actin; for inhibition at 20 µg/mL: 20 μg/mL; for inhibition at 40 µg/mL: 40 μg/mL; for inhibition at 80 µg/mL: 80 μg/mL. The protocol:
Northern blot analysis of the iNOS MRNA expressed by the cells was then carried out to evaluate precisely the effect of iNOS expression in the presence of doxycycline and minocycline. The probes again were the iNOS and β-actin CDNA probes described above.
In this case, total RNA was isolated using TRI Reagent (MRC Inc., Cincinnati, Ohio). […] Briefly, 30 μg of RNA was subjected to electrophoresis in 1% agarose formaldehyde gel. The gel was then transferred via capillary action onto a nylon membrane (Zeta Probe, Bio-Rad Laboratories, Melville, N.Y.). The membrane was hybridized with [^32 P]-dCTP-labeled iNOS CDNA (4 kb SmaI fragment), a kind gift from Dr. James Cunningham (Harvard Medical School, Boston, Mass.). After hybridization, the blot was exposed to Kodak X-ray film (Kodak, Rochester, N.Y.) for 24-48 h with intensifying screens at -70° C. The β-actin probe was purchased from ClonTech (Palo Alto, Calif.) and probed as described above. Quantitation of the intensity of the iNOS/β-actin bands was performed using a phosphoimager (Molecular Dynamics, Sunnyvale, Calif.).

The test system of assay [6] is gelatinase in UMR 106-01 osteoblastic cell line. To be noted: Vernillo et al. 1993; cited from earlier work.

Each structure is given as a SMILES string. Converted amounts (≈) assume the structure as drawn. “Also recorded” adds a separate entry of the source. Where two headings read alike, the source gives them in different places.

As to `C[C@H]1c2cccc(O)c2C(O)=C2C(=O)[C@]3(O)C(O)=C(C(N)=O)C(=O)[C@@H](N(C)C)[C@@H]3[C@@H](O)[C@@H]21` [doxycycline], the “concentration at which inhibitory effects on iNOS expression (mRNA, specific activity and nitrite accumulation) reach a plateau” value in assay [1] is 40 to 80 µg/mL. For the same compound, the IC50 in assay [1] (RAW264.7, 14 h of incubation, read-out: IC50) was 72 µg/mL (≈ 162 µM); in assay [1] (RAW264.7, 20 h of incubation, read-out: IC50), 22 µg/mL (≈ 49.5 µM). For the same compound, the “concentration required to inhibit iNOS-mediated production of NO by >50%” value in assay [1] (compared to minocycline, 14 h and 20 h) is reported as “significantly higher concentrations”. Moreover, in assay [2], the “IC50 to inhibit iNOS activity in cell lysates” value fell in the range of 20 to 30 µg/mL. In addition, the results for the “inhibition of iNOS activity” value in assay [2] (20 μg/mL), in assay [2] (40 μg/mL) and in assay [2] (80 μg/mL) were 57%, 72% and 85%, respectively. In addition, in assay [3], the “effect on the specific activity of iNOS in cell-free extracts” value was “minimal effect; also recorded: no significant effect”. Further, in assay [3], the “effect on an ongoing L-arginine-to-L-citrulline reaction catalyzed by iNOS” value is reported as “could not block”. Moreover, the “inhibition of iNOS protein expression” value in assay [4] (20 μg/mL) came out at 11%; in assay [4] (40 μg/mL), 24%; in assay [4] (80 μg/mL), 65%. This compound also returned an inhibition at 20 µg/mL in assay [5] of 68%. The inhibition at 40 µg/mL in assay [5] worked out at 75%. In assay [5], this compound yielded an inhibition at 80 µg/mL of 79%. In addition, in assay [6], the “IC50, gelatinase activity” value was greater than 200 µg/mL.

On to `CN(C)c1ccc(O)c2c1C[C@H]1C[C@H]3[C@H](N(C)C)C(O)=C(C(N)=O)C(=O)[C@@]3(O)C(O)=C1C2=O` [minocycline], for which the “concentration at which inhibitory effects on iNOS expression (mRNA, specific activity and nitrite accumulation) reach a plateau” value in assay [1] was in the range of 40 to 80 µg/mL. The half-inhibitory concentration (IC50) in assay [1] (RAW264.7, 14 h) worked out at 17 µg/mL (≈ 37.2 µM); in assay [1] (RAW264.7, 20 h), 12 µg/mL (≈ 26.2 µM). Moreover, in assay [2], the “IC50 to inhibit iNOS activity in cell lysates” value is 20 to 30 µg/mL. Moreover, the “inhibition of iNOS activity” value in assay [2] (20 μg/mL) is reported as 45%; in assay [2] (40 μg/mL), 69%; in assay [2] (80 μg/mL), 69%. In addition, in assay [3], the “effect on the specific activity of iNOS in cell-free extracts” value is listed as “minimal effect; also recorded: no significant effect”. Besides, the “effect on an ongoing L-arginine-to-L-citrulline reaction catalyzed by iNOS” value in assay [3] is “could not block”. In addition, the “inhibition of iNOS protein expression” value is listed as 14% in assay [4] (20 μg/mL), 49% in assay [4] (40 μg/mL) and 83% in assay [4] (80 μg/mL). This compound registered an inhibition at 20 µg/mL in assay [5] of 39%. The compound further displayed an inhibition at 40 µg/mL in assay [5] of 49%. For the same compound, the inhibition at 80 µg/mL in assay [5] came out at 77%.
